Our source for the Kd values is patent US20100094026A1, “METHOD OF SCREENING COMPOUND USEFUL IN TREATING ALLERGIC DISEASE” (REVERSE PROTEOMICS RESEARCH INSTITUTE CO., LTD., priority 2005, published 2010).

Structures can show the parent of a compound that is named as a salt.

The target of this experiment is T1, Standard Human Vimentin (Homo sapiens, UniProt P08670).
T1 construct: purchased PROGEN Biotechnik 62015
The experiment can be described thus: Measurement of Kd value between Vimentin and Intal with Biacore (SPR). In kind it is binding. To be noted: SPR on Biacore3000; Intal PEG amine immobilized on CM5 chip; Vimentin 0.29 nM to 4.6 μM infused for 5 min. The protocol:
Intal PEG amine synthesized as above was immobilized to Biacore CM5 chip (#BR-1000-14), according to a method described in BIAapplications Handbook (published by Biacore).
Control data was obtained by using a chip to which 2-ethanolamine was immobilized by the same way.
As Vimentin, Standard Human Vimentin (cat. No. 62015) purchased from PROGEN Biotechnik was subjected to buffer exchange by Running buffer(0.25 M Sucrose, 25 mM Tris-HCl pH7.5, 0.3 mM sodium N,N-diethyldithiocarbamate, 25 mM urea, 1 mM calcium chloride) and used to measure Kd.
The measurement of Kd was performed by SPR (surface plasmon resonance) spectrum measurement on Biacore3000 (Biacore). The above-mentioned Running buffer was run through the Intal-immobilized CM5 chip prepared by the above-mentioned procedure at 20 μl per min. Thereto, each sample which was prepared by gradually diluting the Vimentin prepared by the above-mentioned procedure (0.29 nM to 4.6 μM) was infused for 5 min., and the obtained SPR spectrum was analyzed by BIAevaluation software Ver.

T1 sequence (P08670 whole entry): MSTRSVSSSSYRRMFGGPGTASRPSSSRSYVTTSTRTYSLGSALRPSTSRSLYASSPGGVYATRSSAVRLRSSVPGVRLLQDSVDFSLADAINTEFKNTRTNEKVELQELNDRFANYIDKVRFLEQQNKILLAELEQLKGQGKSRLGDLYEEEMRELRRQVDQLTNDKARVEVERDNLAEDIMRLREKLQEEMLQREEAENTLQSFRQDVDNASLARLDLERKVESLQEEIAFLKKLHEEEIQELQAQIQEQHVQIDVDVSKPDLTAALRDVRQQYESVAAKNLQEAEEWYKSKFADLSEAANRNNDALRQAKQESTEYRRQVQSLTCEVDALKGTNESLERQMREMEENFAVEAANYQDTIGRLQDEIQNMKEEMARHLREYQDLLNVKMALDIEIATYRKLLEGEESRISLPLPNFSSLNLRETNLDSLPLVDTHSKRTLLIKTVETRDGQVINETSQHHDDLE

As to `O=C(O)c1cc(=O)c2c(OCC(O)COc3cccc4oc(C(=O)O)cc(=O)c34)cccc2o1` [Intal, disodium salt of 1,3-bis(2-carboxychromon-5-yloxy)-2-hydroxypropane], the affinity, expressed as Kd, was 56 nM.
